Assay results: US7794991B2, “Stemphones and production thereof” (The Kitasato Institute, priority 2005, dated 2010)
Read-outs that look alike come from different tables or passages of the source.

Columns and labels:
[1] = test system: Bacillus subtilis KB211 (PCI 219); assay: Antimicrobial action, paper disc method; assay type: cell-based; details: 5 μg/disc, disc diameter 6 mm, 37° C., 24 hours
[2] = test system: Stapylococcus aureus KB210 (ATCC6538p); assay: Antimicrobial action, paper disc method; assay type: cell-based; details: 5 μg/disc, disc diameter 6 mm, 37° C., 24 hours
[3] = test system: Micrococcus luteus KB212 (ATCC9341); assay: Antimicrobial action, paper disc method; assay type: cell-based; details: 5 μg/disc, disc diameter 6 mm, 37° C., 24 hours
[4] = test system: Acholeplasma laidlawii KB174; assay: Antimicrobial action, paper disc method; assay type: cell-based; details: 5 μg/disc, disc diameter 6 mm, 37° C., 24 hours
[5] = test system: methicillin resistant Staphylococcus aureus K24; assay: Enhancing effect for activity of imipenem by paper disk method; details: for diameter of inhibition zone in the presence of imipenem / diameter of inhibition zone, stemphone alone: 5 μg disc, 37° C., 20 hours; for diameter of inhibition zone in the presence of imipenem: MHA medium with imipenem 10 μg/ml; for diameter of inhibition zone, stemphone alone: MHA medium without imipenem
[6] = test system: MRSA; assay: Enhancing activity against various antimicrobial agents by broth microdilution method (MIC); assay type: cell-based, Staphylococcus aureus; details: for Ratio (−/+stemphone C) of MIC: MIC alone / MIC with stemphone C 16 μg/ml, fold enhancement; for MIC: Staphylococcus aureus, MRSA, read-out: MIC, antibacterial agent alone (−); for MIC, +stemphone C: in combination with stemphone C 16 μg/ml
[7] = without stemphone C, 37° C., 20 hours

`C/C=C(\C)C(OC(C)=O)C(C)C1=CC(=O)C2=C(OC3(C)CCC4OC(C(C)(C)O)CC(O)C4(C)C3C2O)C1=O` (centres unmarked) [Stemphone B] showed a zone of inhibition at 5 µg/disc [1] of 10 mm, a zone of inhibition at 5 µg/disc [2] of 8 mm and a zone of inhibition at 5 µg/disc [3] of 14 mm. For the same compound, the zone of inhibition at 5 µg/disc [4] was 10 mm, the “diameter of inhibition zone in the presence of imipenem” value [5] was 15 mm and the “diameter of inhibition zone, stemphone alone” value [5] was “not observed”.
With `C/C=C(\C)C(OC(C)=O)C(C)C1=CC(=O)C2=C(OC3(C)CCC4OC(C(C)(C)O)CCC4(C)C3C2)C1=O` (centres unmarked) [Stemphone C] the “effect of stemphone C itself on growth of test organism” value ([6]; final concentration 16 μg/ml) was “did not affect growth”, the zone of inhibition at 5 µg/disc [1] was 9 mm and the zone of inhibition at 5 µg/disc [2] was 8 mm. The zone of inhibition at 5 µg/disc [3] was 14 mm, the zone of inhibition at 5 µg/disc [4] was 9 mm and the “diameter of inhibition zone in the presence of imipenem” value [5] was 20 mm. The “diameter of inhibition zone, stemphone alone” value [5] was “not observed” and the “enhancing activity for imipenem” value ([5]; paper disk method, in words) was “strong enhancing activity”.
With `Cc1nnc(SCC2=C(C(=O)O)N3C(=O)[C@@H](NC(=O)Cn4cnnn4)[C@H]3SC2)s1` [cefazolin] the “Ratio (−/+stemphone C) of MIC” value [6] was 16, the MIC [6, 7] was 64 µg/mL and the “MIC, +stemphone C” value ([6]; 37° C., 20 hours) was 4 µg/mL.
`Cc1onc(-c2ccccc2Cl)c1C(=O)N[C@@H]1C(=O)N2[C@@H]1SC(C)(C)[C@@H]2C(=O)O` [cloxacillin] was tested, and the “Ratio (−/+stemphone C) of MIC” value [6] was 512, the MIC [6, 7] was 512 µg/mL and the “MIC, +stemphone C” value ([6]; 37° C., 20 hours) was 1 µg/mL.
With `C[C@@H](O)[C@H]1C(=O)N2C(C(=O)O)=C(SCCN=CN)C[C@H]12` [imipenem] the “Ratio (−/+stemphone C) of MIC” value [6] was 512, the MIC [6, 7] was 16 µg/mL and the “MIC, +stemphone C” value ([6]; 37° C., 20 hours) was 0.03 µg/mL.
`[H]/N=C(/N)N[C@H]1[C@H](O)[C@@H](O)[C@H](O[C@@H]2O[C@@H](C)[C@](O)(C=O)[C@H]2O[C@@H]2O[C@@H](CO)[C@H](O)[C@@H](O)[C@@H]2NC)[C@@H](N/C(N)=N\[H])[C@@H]1O` [streptomycin] was tested, and the “Ratio (−/+stemphone C) of MIC” value [6] was 4, the MIC [6, 7] was 2 µg/mL and the “MIC, +stemphone C” value ([6]; 37° C., 20 hours) was 0.5 µg/mL.
In the case of `CN(C)[C@@H]1C(O)=C(C(N)=O)C(=O)[C@@]2(O)C(O)=C3C(=O)c4c(O)cccc4[C@@](C)(O)[C@H]3C[C@@H]12` [tetracycline], the “Ratio (−/+stemphone C) of MIC” value [6] is reported as 1, the MIC [6, 7] is reported as 32 µg/mL and the “MIC, +stemphone C” value ([6]; 37° C., 20 hours) is reported as 32 µg/mL.
For `CN[C@H](CC(C)C)C(=O)N[C@H]1C(=O)N[C@@H](CC(N)=O)C(=O)N[C@H]2C(=O)N[C@H]3C(=O)N[C@H](C(=O)N[C@H](C(=O)O)c4cc(O)cc(O)c4-c4cc3ccc4O)[C@H](O)c3ccc(c(Cl)c3)Oc3cc2cc(c3O[C@@H]2O[C@H](CO)[C@@H](O)[C@H](O)[C@H]2O[C@H]2C[C@](C)(N)[C@H](O)[C@H](C)O2)Oc2ccc(cc2Cl)[C@H]1O` [vancomycin], the “Ratio (−/+stemphone C) of MIC” value [6] was 1, the MIC ([6]; 20 h) was 0.5 µg/mL and the “MIC, +stemphone C” value ([6]; 37° C., 20 hours) was 0.5 µg/mL.
